Measurements published in paper PMC6370995, “Phase I study of PF‐04895162, a Kv7 channel opener, reveals unexpected hepatotoxicity in healthy subjects, but not rats or monkeys: clinical evidence of disrupted bile acid homeostasis” (Pharmacology Research & Perspectives, 2019).
Like-named read-outs stand apart in the source and are kept apart here.

How the values were obtained:
[1] = THLE 72 hour cytotoxicity assay based on ATP depletion; assay type: cell-based; details: human, THLE cells, after 72 hours
Description: […]

[2] = system: palmitate fatty acid oxidation; assay: mitochondrial fatty acid oxidation inhibition using palmitate; assay type: biochemical; details: N = 2; read-out: IC50 for impaired palmitate fatty acid oxidation
Description: […]

cynomolgus monkeys = assay: 7-Day Oral Toxicity Study in Monkeys; assay type: in vivo, cynomolgus monkey; details: for liver weight: males and females
Procedure: (§1) Male and female cynomolgus monkeys were administered PF-04895162 twice daily for 7 days at approximately 12 hours apart, with the dose split equally between the 2 daily doses. The highest administered does was 200 mg/kg/day.

[3] = 7-Day Oral Toxicity Study in Monkeys; assay type: in vivo, cynomolgus monkey; details: both sexes, cynomolgus monkey, plasma, oral, Day 7, males and females, read-out: total Cmax
Procedure: as §1

[4] = HepG2 72 hour cytotoxicity assay based on ATP depletion; assay type: cell-based; details: human, HepG2 cells; HepG2, after 72 hours
Description: […]

human hepatocytes = assay: human hepatocyte imaging assay (cell loss); assay type: cell-based; details: 48 hours; three assessments in two human hepatocyte lots (LBN and HU4165)
Description: […]

[5] = Phase 1 clinical study in healthy subjects: plasma pharmacokinetics and food effect; assay type: in vivo, human
Procedure: A randomized, double‐blind, third‐party open (i.e., subject and Investigator blind, and Sponsor open), placebo‐controlled study was conducted in healthy subjects to investigate the safety, tolerability, and pharmacokinetics of single and multiple oral doses of PF‐04895162 and to characterize the effect of food on the pharmacokinetics of a single oral dose of PF‐04895162. The study was conducted in accordance with the International Conference on Harmonization guideline for Good Clinical Practice and the principles of the Declaration of Helsinki and was approved by the local independent ethics committee. All subjects gave written informed consent prior to participation in the study. The study was planned as a parallel group, dose escalation study in four cohorts of 10 subjects each, however, the study was terminated prematurely and only Cohort 1 was conducted. After an initial screening visit to confirm eligibility, subjects in Cohort 1 (Figure 1) received single oral doses of 300 mg PF‐04895162 in Period 1 (under fasting conditions) and Period 2 (under fed conditions), and then 300 mg BID PF‐04895162 or placebo for 14 days (under fasting conditions) in Period 3 (the final dose was administered on the morning of Day 14). In Period 2, subjects were given a high‐fat breakfast 25 minutes prior to dosing which had to be consumed within 20 minutes. In all periods, subjects were fasted for at least 8 hours prior to morning dosing (except for breakfast in Period 2), and received lunch and dinner approximately 4 and 9‐10 hours after the morning dose, respectively. In Period 3, subjects were randomized so that eight subjects received PF‐04895162 and two subjects received placebo. The single doses in Periods 1 and 2, and the first dose in Period 3 were each separated by 3 days. A follow‐up visit was conducted 7‐14 days after the final dose. The ClinicalTrials.gov identifier was NCT01691274.
Safety was assessed throughout the study by monitoring adverse events, vital signs (blood pressure, pulse rate, and body temperature), 12‐lead ECGs, and physical examinations. Blood samples for safety laboratory assessments were collected prior to and 24 hours after the first single dose of PF‐04895162 (Day 1 and 2 of Period 1), and in Period 3 on Days 7, 14, and 21 (additional samples were also collected in response to emerging safety data). The Columbia suicide severity rating scale (C‐SSRS) was also conducted at screening or baseline and at the follow‐up visit. Blood samples for pharmacokinetic profiles of PF‐04895162 were collected from predose to 72 hours after each single dose (Periods 1 and 2), and up to 12 and 48 hours after morning dosing on Days 7 and 14, respectively, in Period 3. Additional trough samples were also collected on Days 5, 6, 12, and 13 of Period 3.
The sample size of 10 subjects per cohort was chosen based on practical considerations and was considered sufficient to provide adequate safety information at each dose level. To assess the effect of food on the pharmacokinetics of PF‐04895162, natural log transformed area under the plasma concentration‐time curve (AUC) from time 0 to the last measured time point (AUClast), AUC from time 0 extrapolated to infinity (AUCinf) and maximum plasma concentration (Cmax) were analyzed using a mixed effects model with treatment (fed or fasted) as a fixed effect and subject as a random effect. Estimates of the adjusted mean differences (Fed ‐ Fasted) and corresponding 90% confidence intervals (CIs) were obtained from the model. The adjusted mean differences and 90% CIs for the differences were exponentiated to provide estimates of the ratio of adjusted geometric means (Fed/Fasted) and 90% CIs for the ratios. No formal hypothesis testing was conducted.

[6] = 300 mg single dose, high-fat breakfast vs fasted

O=C(Cc1ccc(F)cc1)Nn1c(C2CC2)nc2cc(F)ccc2c1=O [PF‐04895162, N‐(2‐cyclopropyl‐7‐fluoro‐4‐oxoquinazolin‐3(4H)‐yl)‐2‐(4‐fluorophenyl)ethanamide]
IC50 at 72 h [1]: ~192 µM | IC50 [2]: ~70 µM | Treatment-related clinical findings (cynomolgus monkeys; 150 and/or 200 mg/kg/day): decreased activity, ataxia, inappetence, stereotypy (hyper-reactivity, rigidity, jumping), tremors, loss of limb function, rapid eye movement, and eyelid partially/completely closed | thymus gland weight (cynomolgus monkeys; females, 150 and 200 mg/kg/day): Decreased thymus gland weight | liver weight (cynomolgus monkeys; 150 and 200 mg/kg/day): Increased liver weight | liver weight (cynomolgus monkeys; 150 and 200 mg/kg/day, listed as ICA-105665): increased liver weight | brain weight (cynomolgus monkeys; males, 150 and 200 mg/kg/day): dose-dependent increases in brain weight | clinical chemistry (liver effects) (cynomolgus monkeys; twice daily for 7 days, up to 200 mg/kg/day): no clinical chemistry changes suggestive of liver effects | Cmax ([3]; 150 mg/kg/day): > 27000 ng/mL | Cmax ([3]; 200 mg/kg/day): > 24000 ng/mL | IC50 at 72 h [4]: ~130 µM | AC50 (human hepatocytes): > 125 µM | AUCinf, Ratio (90% Confidence Interval) of Adjusted Means, Fed vs Fasted [5, 6]: 113.27 (102.99, 124.58) % | AUClast, Ratio (90% Confidence Interval) of Adjusted Means, Fed vs Fasted [5, 6]: 116.85 (106.90, 127.73) % | Cmax, Ratio (90% Confidence Interval) of Adjusted Means, Fed vs Fasted [5, 6]: 202.92 (178.28, 230.95) % | AUC ([5]; human, plasma, oral, 300 mg, 300 mg BID, Day 7, subject with the highest ALT values, read-out: AUCtau, Subject 8): 93000 ng·h/mL | Cmax ([5]; human, plasma, oral, 300 mg, 300 mg BID, Day 7, subject with the highest ALT values, read-out: Cmax, Subject 8 (converted)): 10800 ng/mL | AUC ([5]; human, plasma, oral, 300 mg, Period 1, 300 mg fasted, Day 1 (N = 10), 12 h interval, geometric mean (%CV), read-out: AUCtau): 40800 ng·h/mL | half-life ([5]; human, plasma, oral, 300 mg, Period 1, 300 mg fasted, Day 1 (N = 10), arithmetic mean ± SD, read-out: t½, terminal half-life (converted)): 7.88 ± 3.2 h | Cmax ([5]; human, plasma, oral, 300 mg, Period 1, 300 mg fasted, Day 1 (N = 10), geometric mean (%CV), read-out: Cmax): 4510 ng/mL | Tmax ([5]; human, plasma, oral, 300 mg, Period 1, 300 mg fasted, Day 1 (N = 10), median (range)): 5 h | Cmax ([5]; human, plasma, oral, 300 mg, Period 1, 300 mg fasted, Day 1 (N = 10), total concentration, read-out: Cmax): 12.7 µM | half-life ([5]; human, plasma, oral, 300 mg, Period 2, 300 mg fed, Day 1 (N = 10), arithmetic mean ± SD, read-out: t½, terminal half-life (converted)): 5.21 ± 1.17 h | Cmax ([5]; human, plasma, oral, 300 mg, Period 2, 300 mg fed, Day 1 (N = 10), geometric mean (%CV), read-out: Cmax): 9150 ng/mL | Tmax ([5]; human, plasma, oral, 300 mg, Period 2, 300 mg fed, Day 1 (N = 10), median (range)): 4 h | Cmax ([5]; human, plasma, oral, 300 mg, Period 2, 300 mg fed, Day 1 (N = 10), total concentration, read-out: Cmax): 25.8 µM | Cmax at 7 day ([5]; human, plasma, oral, 300 mg, Period 3, 300 mg BID fasted, Day 7 (N = 7), geometric mean (%CV)): 9430 ng/mL | AUC ([5]; human, plasma, oral, 300 mg, Period 3, 300 mg BID fasted, Day 7 (N = 7), geometric mean (%CV), read-out: AUCtau): 85200 ng·h/mL | Tmax at 7 day ([5]; human, plasma, oral, 300 mg, Period 3, 300 mg BID fasted, Day 7 (N = 7), median (range)): 2 h | Cmax at 7 day ([5]; human, plasma, oral, 300 mg, Period 3, 300 mg BID fasted, Day 7 (N = 7), total concentration): 26.5 µM | half-life at 14 day ([5]; human, plasma, oral, 300 mg, Period 3, 300 mg BID fasted, Day 14 (N = 7), arithmetic mean ± SD, read-out: t½, terminal half-life (converted)): 8.04 ± 3.29 h | Cmax at 14 day ([5]; human, plasma, oral, 300 mg, Period 3, 300 mg BID fasted, Day 14 (N = 7), geometric mean (%CV)): 8380 ng/mL | AUC ([5]; human, plasma, oral, 300 mg, Period 3, 300 mg BID fasted, Day 14 (N = 7), geometric mean (%CV), read-out: AUCtau): 71200 ng·h/mL | Tmax at 14 day ([5]; human, plasma, oral, 300 mg, Period 3, 300 mg BID fasted, Day 14 (N = 7), median (range)): 2 h | Cmax at 14 day ([5]; human, plasma, oral, 300 mg, Period 3, 300 mg BID fasted, Day 14 (N = 7), total concentration): 23.6 µM | half-life ([5]; human, plasma, oral, 300 mg, similar after single and multiple dosing, 300 mg, read-out: Mean terminal half-life (converted)): ~8 h
